Results taken from patent US5506354A, “Imidazolylpiperazinyl steroids” (The Upjohn Company, priority 1992, dated 1996).
Where a name gives a salt, the structure may show the parent alone.

Experiments:
[1] = system: MDA formation; assay: Malonyldialdehyde (MDA) Formation Assay (rat brain synaptosomes); type: biochemical; settings: 10 min at 37°, pH 7.0; active = 50% or more at 200 μM or less
Experimental: Since lipid peroxidation is involved in the pathophysiology of center nervous system trauma, compounds which inhibit MDA formation are useful in treating the conditions listed below.
While not necessary to determine MDA formation, the above assays have been modified as follows: rat brain synaptosomes are prepared as described in the Example about the conjugated diene assay, except that the final wash of the synaptosomes and final suspension are in physiological (normal) saline in which the pH has been adjusted to 7.0. The synaptosomes are incubated for 10 min at 37° in physiological (normal) saline pH 7.0 (total volume=100 ul) containing; 10 ul synaptosomal suspension, 10% DMSO plus or minus drug, 150 uM Fe^+++ and 50 uM Fe++. The incubation is started by the rapid addition of iron to the otherwise complete reaction. The iron solutions are prepared fresh as ferric chloride and ferrous ammonium sulfate in argon-purged water. Following the 10 min incubation, the reaction is stopped by the addition of 500 ul ice-cold 12% trichloroacetic acid prepared in 0.5N hydrochloric acid. Water (300 ul) is then added along with 100 ul of freshly prepared thiobarbituric acid (3.3% in 0.5N sodium hydroxide) and 10 ul of 5 mM desferrioxamine. The sample is then heated in a boiling water bath for 20 minutes. The samples are cooled and centrifuged for 15 minutes at 1500×g and the absorbence of the supernatant fraction is read at 532 nm. The % inhibition of MDA formation is calculated by dividing the absorbance of sample containing drug by the absorbence of samples incubated without drug. Reaction blanks are samples incubated in the absence of iron. A compound that inhibits MDA formation by 50% or more at a concentration of 200 μM or less is considered "active".

[2] = system: angiogenesis; assay: Chick embryo assay of Folkman (inhibition of angiogenesis / tumor growth); type: in vivo; settings: 50 μg/10 μl in the presence of heparin
Experimental: According to this procedure compounds which are considered to be "active" (i.e. antiangiogenic) give an avascular zone of 4 mm or greater in some embryos when tested at 50 μg/10 μl in the presence of 50 μg/10μ of heparin.

[3] = system: arachidonic acid; assay: Arachidonic Acid Antagonism Assay (AAAA), LD50 of sodium arachidonate; type: in vivo, Charles River male CF-1 mice; settings: test compound IV 15 min before sodium arachidonate; LD50 outside 95% confidence interval of control
Experimental: Since these metabolites contribute to the pathological problems associated with stroke, spinal trauma and head injury, compounds which antagonize arachidonic acid are useful in treating stroke, spinal trauma and head injury.
While not necessary to determine arachidonic acid antagonism, the above assay has been modified as follows: Charles River male CF-1 mice weighing 18-22 g are treated IV with the test compound dissolved in 1.0% Tween-80 and 0.1% hydrochloric acid in distilled water, 0.2 ml total volume. Fifteen minutes later sodium arachidonate (90% pure) in physiological (normal) saline is injected into the tail vein. The LD50 is measured using the Spearman-Karber method with a log dose interval of 0.05 (N=6). Compounds which elevate the LD50 outside of the 95% confidence interval of the control LD50 are considered to be "active".

[4] = system: interleukin-1; assay: Inhibition of interleukin-1 induced T cell proliferation; type: cell-based; settings: for inhibition of interleukin 1 (activity in words): active = greater than 30% at 10^-6 M
Description: The inhibition of interleukin-1 induced T cell proliferation assay, Proc. Nat. […] Since people with arthritis make excess interleukin 1, compounds which inhibit the activity of interleukin 1 are useful in the treatment of arthritis. According to this procedure compounds which inhibit the activity of interleukin 1 greater that 30% at 10^-6 M are considered to be "active".

C[C@H]1C[C@H]2[C@@H]3C[C@H](F)C4=CC(=O)CC[C@]4(C)C3=CC[C@]2(C)[C@@]1(O)C(=O)CN1CCN(c2cc(N3CCCC3)nc(N3CCCC3)n2)CC1 [Example 118, 6αa-Fluoro-17α-hydroxy-16β-methyl-21-[4-[2,6-bis(1-pyrrolidinyl)-4-pyrimidinyl]-1-piperazinyl]-pregna-4,9(11)-diene-3,20-dione dihydrochloride]
inhibition of MDA formation (activity in words) [1]: demonstrate such activity

COc1ccccc1N1CCN(CC(=O)[C@@]2(O)CC[C@H]3[C@@H]4CCC5=CC(=O)CC[C@]5(C)[C@H]4CC[C@@]32C)CC1.Cl.Cl.O [Example 41, 17α-hydroxy-21-[4-(2-methoxyphenyl)-1-piperazinyl]pregn-4-ene-3,20-dione dihydrochloride hydrate]
% of Embryos with 4 mm or Greater Avascular Zone [2]: 80% | arachidonic acid antagonism (activity in words) [3]: demonstrate arachidonic acid antagonism

C[C@]12CC(=O)[C@H]3[C@@H](CCC4=CC(=O)CC[C@@]43C)[C@@H]1CC[C@@H]2C(=O)CN1CCN(c2cc(N3CCCC3)nc(N3CCCC3)n2)CC1.Cl.Cl [Example 94, 21-[4-[2,6-bis(1-pyrrolidinyl)-4-pyrimidinyl]-1-piperazinyl]pregn-4-ene-3,11,20-trione dihydrochloride]
inhibition of interleukin 1 (activity in words) [4]: demonstrate inhibition of interleukin 1

C[C@@]12C(=CC(=O)C[C@@H]1C#N)CC[C@@H]1C2=CC[C@]2(C)[C@@H](CCN3CCN(c4cc(N5CCCC5)nc(N5CCCC5)n4)CC3)CC[C@@H]12.Cl.Cl.Cl.O [Example 110, 21-[4-(2,6-Bis(1-pyrrolidinyl)4-pyrimidinyl)-1-piperazinyl]-1α-cyanopregna-4,9(11)-dien-3-one-trihydrochloride, hydrate]
inhibition of MDA formation (activity in words) [1]: demonstrate such activity

CCN(CC)c1ccc(N(C)C)c(N2CCN(CC(=O)[C@@]3(O)CC[C@H]4[C@@H]5CCC6=CC(=O)CC[C@]6(C)C5=CC[C@@]43C)CC2)n1.Cl.Cl [Example 96, 21-[4-[6-(diethylamino)-3-(dimethylamino)-2-pyridinyl]-1-piperazinyl]-17α-hydroxypregna-4,9(11)-diene-3,20-dione dihydrochloride]
inhibition of interleukin 1 (activity in words) [4]: demonstrate inhibition of interleukin 1 | % Inhibition at 10^-6 M ([4]; interleukin 1, 10^-6 M): 77%

CC(CN1CCN(c2cc(N3CCCC3)nc(N3CCCC3)n2)CC1)[C@H]1CC[C@H]2[C@@H]3CCC4=CC(=O)CC[C@]4(C)[C@H]3CC[C@]12C.Cl (some centres unmarked) [Example 107, 20-Methyl-21-[4-(2,6-bis(1-pyrrolidinyl)-4-pyrimidinyl)-1-piperazinyl]pregna-4-ene-3-one hydrochloride]
inhibition of MDA formation (activity in words) [1]: demonstrate such activity

C[C@@H]1C[C@H]2[C@@H]3CCC4=CC(=O)C=C[C@]4(C)[C@H]3CC[C@]2(C)[C@H]1C(=O)CN1CCN(c2cc(N3CCCC3)nc(N3CCCC3)n2)CC1.Cl.Cl [Example 121, 16α-Methyl-21-[4-[2,6-bis(1-pyrrolidinyl)-4-pyrimidinyl]-1-piperazinyl]-pregna-1,4-diene-3,20-dione dihydrochloride]
inhibition of MDA formation (activity in words) [1]: demonstrate such activity

CN(CCN(C)c1ccccn1)CC(=O)[C@@]1(O)CC[C@H]2[C@@H]3CCC4=CC(=O)CC[C@]4(C)C3=CC[C@@]21C [Example 24, 17α-hydroxy-21-[methyl[2-(methyl-2-pyridinylamino)ethyl]-aminopregna-4,9(11)-diene-3,20-dione dihydrochloride]
inhibition of angiogenesis (activity in words) [2]: demonstrate inhibition of angiogenesis | arachidonic acid antagonism (activity in words) [3]: demonstrate arachidonic acid antagonism

C[C@]12CC[C@H]3[C@@H](CCC4=CC(=O)C=C[C@@]43C)[C@@H]1CC[C@@H]2C(=O)CN1CCN(c2cc(N3CCCC3)nc(N3CCCC3)n2)CC1.Cl.Cl [Example 97, 21-[4-[2,6-di-(1-pyrrolidinyl)-4-pyrimidinyl]-1-piperazinyl]-pregna-1,4-diene-3,20-dione dihydrochloride]
inhibition of angiogenesis (activity in words) [2]: demonstrate inhibition of angiogenesis | inhibition of interleukin 1 (activity in words) [4]: demonstrate inhibition of interleukin 1

CN1CCN(CC(=O)[C@@]2(O)CC[C@H]3[C@@H]4CCC5=CC(=O)CC[C@]5(C)C4=CC[C@@]32C)CC1 [Example 101, 17α-hydroxy-21-(4-methyl-1-piperazinyl)pregna-4,9(11)-diene-3,20-dione]
inhibition of interleukin 1 (activity in words) [4]: demonstrate inhibition of interleukin 1

C[C@]12CC[C@@H]3c4ccc(O)cc4CC[C@H]3[C@@H]1CC[C@]2(O)C(=O)CN1CCN(c2cc(N3CCCC3)nc(N3CCCC3)n2)CC1 [Example 129, 3,17α-Dihydroxy-21-[4-[2,6-bis(1-pyrrolidinyl)-4-pyrimidinyl]-1-piperazinyl]-19-norpregna-1,3,5(10)-trien-20-one (E)-2-butenedioate 1:1 salt]
inhibition of MDA formation (activity in words) [1]: demonstrate such activity

COc1ccc2c(c1)CC[C@@H]1[C@@H]2CC[C@@]2(C)[C@H]1CC[C@]2(O)C(=O)CN1CCN(c2cc(N3CCCC3)nc(N3CCCC3)n2)CC1 [Example 125, 3,17α-Dihydroxy-21-[4-[2,6-bis(1-pyrrolidinyl)-4-pyrimidinyl]-1-piperazinyl]-19-norpregna-1,3,5(10)-trien-20-one 3-methyl ether (E)-2-butenedioate 1:1 salt]
inhibition of MDA formation (activity in words) [1]: demonstrate such activity

C[C@H]1C[C@@H]2[C@H]([C@@H](O)C[C@@]3(C)[C@H]2CC[C@]3(O)C(=O)CN2CCN(c3ccccn3)CC2)[C@@]2(C)C=CC(=O)C=C12 [Example 21, 11β,17α-dihydroxy-6α-methyl-21-[4-(2-pyridinyl)-1-piperazinyl]pregna-1,4-diene-3,20-dione]
% of Embryos with 4 mm or Greater Avascular Zone [2]: 91% | inhibition of angiogenesis (activity in words) [2]: demonstrate inhibition of angiogenesis | inhibition of interleukin 1 (activity in words) [4]: demonstrate inhibition of interleukin 1 | arachidonic acid antagonism (activity in words) [3]: demonstrate arachidonic acid antagonism

COc1ccc(CCN(CC(=O)[C@@]2(O)CC[C@H]3[C@@H]4CCC5=CC(=O)CC[C@]5(C)C4=CC[C@@]32C)Cc2cc(OC)c(OC)c(OC)c2)cc1OC [Example 37, 17α-hydroxy-21-[[2-(3,4-dimethoxy-phenyl)ethyl]-[3,4,5-trimethoxyphenyl)methyl]amino]pregna-4,9(11)diene-3,20-dione hydrochloride]
inhibition of angiogenesis (activity in words) [2]: demonstrate inhibition of angiogenesis | inhibition of interleukin 1 (activity in words) [4]: demonstrate inhibition of interleukin 1

C[C@]12CCC(=O)C=C1CC[C@@H]1C2=CC[C@]2(C)[C@@H](CCN3CCN(c4cc(N5CCCC5)nc(N5CCCC5)n4)CC3)CC[C@@H]12.Cl [Example 104, 21-[4-(2,6-Bis(1-pyrrolidinyl)-4-pyrimidinyl)-1-piperazinyl]pregna-4,9(11)-dien-3-one hydrochloride]
inhibition of MDA formation (activity in words) [1]: demonstrate such activity | inhibition of angiogenesis (activity in words) [2]: demonstrate inhibition of angiogenesis

COc1cccc(N2CCN(CC(=O)[C@@]3(O)CC[C@H]4[C@@H]5CCC6=CC(=O)CC[C@]6(C)C5=CC[C@@]43C)CC2)n1.CS(=O)(=O)O [Example 22, 17α-hydroxy-21-[4-(6-methoxy-2-pyridinyl)-1-piperazinyl]pregna-4,9(11)-diene-3,20-dione monomethanesulfonate]
arachidonic acid antagonism (activity in words) [3]: demonstrate arachidonic acid antagonism

C[C@]12C=CC(=O)C=C1CC[C@@H]1[C@@H]2[C@@H](O)C[C@@]2(C)[C@H]1CC[C@]2(O)C(=O)CN1CCN(c2ccccn2)CC1 [Example 25, 11.uparw.,17α-dihydroxy-21-[4-(2-pyridinyl)-1-piperazinyl]pregna-1,4-diene-3,20-dione dihydrochloride]
arachidonic acid antagonism (activity in words) [3]: demonstrate arachidonic acid antagonism
